Key:
D458 = assay: MTT assay, 48 h exposure, D458 MB cells; assay type: cell-based, human; details: Table 3, MTT, 48 h exposure, mean ± SEM
Protocol: (§1) HDF (3000 cells), C8-D1A (5000 cells), D458 (5000 cells), DAOY (2000 cells), HD-MB03 (10,000 cells) and CHLA-01-Med (10,000 cells) were seeded at an approximate confluency of 50% in 96-well plates (Corning Inc., Corning, NY, USA) in 100 µL medium per well. A range from 50 nM to 150 µM of every drug was tested. The effects of the antiangiogenic compounds were measured using a 3-[4,5-dimethylthiazol-2yl]-diphenyltetrazolium bromide (MTT) colorimetric assay (Sigma, Lyon, France) according to the manufacturer’s instructions. When applicable, IC50 was calculated using the nonlinear regression method of the Prism 5 software (Graphpad Software Inc., San Diego, CA, USA). […] An MTT assay was conducted as described above to assess the fitness of the cells.

HD-MB03 [1] = assay: MTT assay, 48 h exposure, HD-MB03 MB cells; assay type: cell-based, human; details: Table 3, MTT, 48 h exposure, mean ± SEM
Protocol: as §1

DAOY [2] = assay: MTT assay, 48 h exposure, DAOY MB cells; assay type: cell-based, human; details: Table 3, MTT, 48 h exposure, mean ± SEM
Protocol: as §1

HDF = assay: MTT assay, 48 h exposure, human dermal fibroblasts; assay type: cell-based; details: Table 3, mean ± SEM
Protocol: as §1

C8-D1A = assay: MTT assay, 48 h exposure, murine primary astrocytes; assay type: cell-based; details: Table 3, mean ± SEM
Protocol: as §1

DAOY [3] = assay: Cumulative population doubling (CPD), DAOY; assay type: cell-based, human; details: continuous treatment; axitinib 5 µM, etoposide 1 µM
Protocol: (§2) Cumulative population doubling (CPD) was assessed as previously described. Briefly, depending on the cell line, a variable number of cells corresponding to about 30% confluency were seeded in triplicate in 60 mm diameter Petri dishes. […] The cells were harvested when the confluency reached about 90%, counted and plated again at a dilution of 1/20. CPD was calculated as previously described.

MB cells = assay: Proliferation index assay, MB cells; assay type: cell-based, human; details: after 120 h; axitinib 5 µM, etoposide 1 µM
Protocol: DAOY, D458, D283, C8-D1A and HDF (30,000 cells per well) and HD-MB03 (50,000 cells per well) were seeded in 24-well plates for proliferation assays.

[4] = test system: subcutaneous HD-MB03 tumors; assay: Subcutaneous HD-MB03 xenografts; assay type: in vivo, mouse; details: oral, thrice a week
Protocol: For subcutaneous xenograft experiments, tumor cells expressing the luciferase (350,000 HDMB-Luc cells and 1.10^6 DAOY-Luc cells) were resuspended in 200 µL of 5 µg/mL Matrigel (Corning Inc., Corning, NY, USA) and injected subcutaneously in the flank of 5-week-old Rj:NMRI-Foxn1 nude (nu/nu) female mice (Janvier Labs, Le Genest-Saint-Isle, France). Saline solution (NaCl 0.9M; 100 µL) containing 30 mg/mL D-Luciferin (Perkin Elmer, Wellesley, MA, USA) was injected intraperitoneally in the animals and the bioluminescence was quantified using an In Vivo Imaging System (Perkin Elmer, Wellesley, MA, USA) according to the manufacturer’s instructions. Tumor volume (V = L × l2 × 0.52) was determined with a caliper and the endpoint was determined as a tumor volume of 1000 mm^3. […] The mice were sacrificed when the tumor reached 1000 mm^3. […] No statistical methods were used to predetermine the sample size of the experiments. Animal facility availability and cost were used to determine sample sizes. Two independent cohorts of five mice per group were used for the tumor growth experiment with HD-MB03 cells and one cohort of five mice per group was used for the experiment with DAOY cells. Animal experiments were carried out in strict accordance with the recommendations in the Guide for the Care and Use of Laboratory Animals. Our experiments were approved by Direction de l’Action Sanitaire et Sociale of the Principality of Monaco and the ethics committee of Centre Scientifique de Monaco.
(§3) The growth rate of the tumors generated with HD-MB03 cells was determined using a linear regression method applied to the growth curves between the sizes of 400 mm^3 up to the endpoint using Prism 5 (Graphpad Software Inc., San Diego, CA, USA).
(§4) Tumor samples were recovered from the animals and embedded in the OCT compound according to the manufacturer’s protocol (Thermo Fisher Scientific Inc., Waltham, MA, USA). After that, 5 µm thin sections were prepared with a cryostat (Leica Microsystems, Wetzlar, Germany). Incubation was carried out with the following antibodies diluted at 1:1000 in TBS supplemented with 1% horse serum and 1% BSA for 20 min at room temperature: anti-Ki67 (cat. number ab16667, Abcam, Cambridge, UK), anti-CD31 (cat. number 550274, BD Biosciences, Frankton Lake, NJ, USA) or anti-αSMA (cat. number A2547, Merck Millipore, Burlington, MA, USA). The preparations were then washed with TBS–0.025% Triton, incubated with anti-rabbit Alexa488 and anti-mouse Alex-555-coupled secondary antibodies (Cell Signaling Technology, Danvers, MA, USA), washed with TBS–0.025% Triton, and the nuclei were counterstained with Hoechst33342 (Thermo Fisher Scientific, Waltham, MA, USA). Fluorescence images of the cells were taken with a DMI400 inverted microscope equipped with a 40× objective (Leica Microsystemes, Nanterre, France) and a Zyla 5.5 camera (Andor Technologies, Belfast, UK) powered by the Micromanager software. At least one cross-section of nonoverlapping images of each tumor was acquired. All the images were then quantified with the CellProfiler 3.0 software.

HD-MB03 [5] = assay: Cumulative population doubling (CPD), HD-MB03; assay type: cell-based, human; details: continuous treatment; axitinib 5 µM, etoposide 1 µM
Protocol: as §2

subcutaneous DAOY tumors = details: oral, thrice a week; axitinib 50 mg/kg, etoposide 30 mg/kg, combination 25 + 15 mg/kg
Protocol: For subcutaneous xenograft experiments, tumor cells expressing the luciferase (350,000 HDMB-Luc cells and 1.10^6 DAOY-Luc cells) were resuspended in 200 µL of 5 µg/mL Matrigel (Corning Inc., Corning, NY, USA) and injected subcutaneously in the flank of 5-week-old Rj:NMRI-Foxn1 nude (nu/nu) female mice (Janvier Labs, Le Genest-Saint-Isle, France). Saline solution (NaCl 0.9M; 100 µL) containing 30 mg/mL D-Luciferin (Perkin Elmer, Wellesley, MA, USA) was injected intraperitoneally in the animals and the bioluminescence was quantified using an In Vivo Imaging System (Perkin Elmer, Wellesley, MA, USA) according to the manufacturer’s instructions. Tumor volume (V = L × l2 × 0.52) was determined with a caliper and the endpoint was determined as a tumor volume of 1000 mm^3. […] The mice were sacrificed when the tumor reached 1000 mm^3. […]
as §3
Tumor samples were recovered from the animals and embedded in the OCT compound according to the manufacturer’s protocol (Thermo Fisher Scientific Inc., Waltham, MA, USA). […] All the images were then quantified with the CellProfiler 3.0 software.

[6] = test system: C8-D1A/HD-MB03 mixed spheroids; assay: 3D mixed spheroids of astrocytes and MB cells; assay type: cell-based; details: 7 days; axitinib 5 µM or etoposide 1 µM
Protocol: C8-D1A cells were stained with the green fluorescent probe neuro-DiO (cat. number 60015, Biotium, Fremont, CA, USA) according to the manufacturer’s protocol. C8-D1A-neuroDio cells (150,000) and HD-MB03-mCherry or DAOY-mCherry cells (50,000) were plated in 12-well plates. […] Fluorescence images of the cells were taken with a DMI400 inverted microscope (Leica Microsystemes SAS, Nanterre, France) equipped with a 40× objective and a Zyla 5.5 camera (Andor Technologies, Belfast, UK). The cells were then trypsinized and the number of both cell types was quantified using a Melody FACS (BD Biosciences, Frankton Lake, NJ, USA) with a 488 nm laser beam. Analysis of the FACS data was conducted with the Flowjo software (Tree Star Inc., Ashland, OR, USA).
Two thousand cells were seeded in ultralow-adhesion 96-well plates (Corning Inc., Corning, NY, USA). […] Pictures were taken with an AMG Evos microscope 40× objective (Thermo Fisher Scientific Inc, Waltham, MA, USA) and the spheroid areas were measured using the ImageJ software (NIH, Bethesda, MD, USA).

[7] = test system: HD-MB03 intracranial tumors
Protocol: HD-MB03-Luc spheroids were stereotaxically implanted into the brains of 9-week-old Rj:NMRI-Foxn1 nude (nu/nu) female mice (Janvier Labs, Le Genest-Saint-Isle, France). Briefly, MB spheroids were generated with 2500 cells grown for 48 h in ultralow-adhesion spheroid 96-well plates (Corning, Corning, NY, USA) and three spheroids per mouse were implanted into the left cerebellar hemisphere (2 mm posterior, 1.5 mm left of the lambda point and 2.5 mm deep) using a Hamilton syringe fitted with a needle (Hamilton, Bonaduz, Switzerland) and following the procedure already described. […] Oral gavage with a vehicle solution was used as the control. Mouse survival was based on the presence of neuropathological symptoms including gait defects and a loss of weight over 10% as endpoints. A minimum of five mice per group was chosen to yield sufficient statistical power (p < 0.05, one-way ANOVA). These experiments were carried out in strict accordance with the recommendations in the Guide for the Care and Use of Laboratory Animals. Our experiments were approved by Direction de l’Action Sanitaire et Sociale of the Principality of Monaco and the ethics committee of Centre Scientifique de Monaco.
as §4

[8] = axitinib 50 mg/kg, etoposide 30 mg/kg, combination 25 + 15 mg/kg

Row | SMILES | IC50 (D458) [µM] | IC50 (HD-MB03 [1]) [µM] | IC50 (DAOY [2]) [µM] | IC50 (HDF) [µM] | IC50 (C8-D1A) [µM] | IC50 (D458; Homo sapiens) [µM] | long-term proliferation (CPD) of DAOY cells (DAOY [3]) | reduction of proliferation of MB cells (MB cells) | number of endothelial cells (CD31-positive) and/or pericytes/cancer-associated fibroblasts (αSMA-positive) [4] | median time to reach the endpoint volume (1000 mm^3) [4, 8] [days] | range of time to reach the endpoint volume (1000 mm^3) [4, 8] [days] | IC50 (HD-MB03 [1]; Homo sapiens, HD-MB03) [µM] | IC50 (DAOY [2]; Homo sapiens, Daoy) [µM] | long-term proliferation (CPD) of HD-MB03 cells (HD-MB03 [5]) | IC50 (C8-D1A; Mus musculus, C8-D1A) [µM] | tumor growth (lognormal mathematical modelling) (subcutaneous DAOY tumors) | size of mixed spheroids [6] | number of CD31-positive and αSMA-positive double-stained structures (vessels covered with pericytes) ([7]; metronomic oral treatment) | survival of mice with intracranial tumors ([7]; oral, five times a week, axitinib 50 mg/kg, etoposide 30 mg/kg, combination 25 + 15 mg/kg)
1 | N.N.O=C([O-])C1(C(=O)[O-])CCC1.[Pt+2] [Carboplatin, carboplatin] | > 20 | > 20 | > 20 | > 20 | > 20 | – | – | – | – | – | – | – | – | – | – | – | – | – | –
2 | COc1cc([C@@H]2c3cc4c(cc3[C@@H](O[C@@H]3O[C@@H]5CO[C@@H](C)O[C@H]5[C@H](O)[C@H]3O)[C@H]3COC(=O)[C@H]23)OCO4)cc(OC)c1O [Etoposide, etoposide] | – | – | – | – | – | 0.52 ± 0.15 | strongly impaired their proliferation | more than 80% | did not impact | 18 | 11 to 60 | 0.09 ± 0.006 | 0.2 | strongly impaired their proliferation | 2.2 ± 0.6 | decreased tumor growth rates | strong decrease in the size of spheroids | decreased the number | no significant effect on survival

Reference: article PMC8750527 (Cancers, 2021)
